Assay results published in patent US9278982B2, “Targeting human thymidylate kinase induces DNA repair toxicity in malignant tumor cells” (NATIONAL YANG-MING UNIVERSITY, priority 2010, dated 2016).
“Also recorded” adds a separate entry of the source.

Legend:
TMPK [1] = target: T1, TMPK (Homo sapiens, UniProt P23919); test: In vitro TMPK inhibitory activity of TMPK inhibitor derivatives (inhibition yield); assay type: biochemical; parameters: GST (N, cleaved yes); made in house; host or cells: E. coli JM109 (pGEX-2T-hTMPK), inferred; settings: n=3 or 6, read-out: inhibition yield, normalized to compound 21 (YMU1) = 100%
T1 sequence (P23919 1-212): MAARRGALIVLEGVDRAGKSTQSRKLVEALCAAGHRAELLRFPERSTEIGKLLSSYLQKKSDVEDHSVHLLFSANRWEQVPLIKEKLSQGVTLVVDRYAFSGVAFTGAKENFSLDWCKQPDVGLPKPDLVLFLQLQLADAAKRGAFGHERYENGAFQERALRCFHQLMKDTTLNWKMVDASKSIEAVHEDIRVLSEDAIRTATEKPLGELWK
Description: Chemical structures of the different TMPK inhibitor derivatives tested for in vitro TMPK inhibitory activity and in vivo doxorubicin sensitization activity (in MDA-MB231 cells) are depicted below.

TMPK [2] = target: T1, TMPK; test: Luciferase-coupled TMPK assay; assay type: biochemical; parameters: GST (N, cleaved yes); made in house; host or cells: E. coli JM109 (pGEX-2T-hTMPK); settings: purified hTMPK protein (0.5 μg), 10 min preincubation
Description: FIG. 12. Identification of a novel hTMPK inhibitor. (A) A screen of TMPK inhibitor by luciferase-coupled assay. (B) The chemical structures of YMU1 (compound 21) and related molecules. (C) Effect of YMU1 and derivative compounds on hTMPK inhibition using purified hTMPK protein (0.5 μg) with 10 min preincubation prior to reaction using luciferase-coupled TMPK analysis. (D) Effect of YMU1 on activity of purified TMPK (0.5 μg) and GST-hTK1 protein (5 μg) with 10 min preincubation prior to reaction. Data represent mean±s.d. (n=4) (E) Molecular models of the TMPK-YMU1 complex. Left panel: TMPK/ATP/Mg+2; right panel: TMPK/YMU1. The TMPK is represented in surface electrostatic potential (upper) and structural ribbon (lower). ATP and YMU1 are shown in green and blue stick, respectively, with colored atom (O, red; S, yellow; P, orange). TMP is shown in white backbone and Mg+2 in purple. Arrow indicates the position of Asp15.
Based on the functional requirement of TMPK in DNA repair specifically in tumor cells with elevated level of R2 expression, we searched for inhibitors of hTMPK that might be useful in selectively sensitizing tumor cells to doxorubicin. […] The synthetic procedure and structural elucidation of YMU1 (compound 21) are described in the Methods of the Invention section of the application.
The TMPK reaction was started by adding purified hTMPK in 50 μl of TMPK assay buffer (100 mM Tris-HCl, pH 7.5, 100 mM KCl, 10 mM MgCl2, 50 μM ATP and 100 μM dTMP) in 96 wells plate at 25° C. for 10 min and terminated by adding 200 μl of DTNB (100 μM), followed by transferring 10 μl of reaction solution to a white 96-wellplate containing 90 μl of luciferase assay buffer (50 mM Glycine, 0.5 mM EDTA and 5 mM EDTA, pH 7.0, 0.1 μg of luciferase, 50 μM luciferin and 0.1% BSA). The luminescence was measured with a luminescence counter (Packard).

MDA-MB231 = test: Doxorubicin sensitization, MTS viability assay; assay type: cell-based, human; settings: MDA-MB231 cell treatment, compound at 2 μM
Description: (§1) FIG. 16. In vitro and in vivo effect of YMU1 on doxorubicin sensitization. (A) A panel of cell lines were pre-treated with vehicle, YMU1 (compound 21), D6 (ethyl 4-(2-chloroacetyl)piperazine-1-carboxylate) or D7 (compound 28) for 3 days and were exposed to different concentration of doxorubicin for 4 h. […] The enhancement (fold) of doxorubicin sensitivity in each cell line was calculated. Data represent mean±s.d., n=3; each experiment was quadruplex. Inset indicates the IC50 value of doxorubicin in various cell lines. […] Following overnight culture, cells were refreshed with growth medium. After 14 days of culture, colonies were fixed, stained by crystal violet and counted. (C) HCT-116 p53^−/− cells were subcutaneously implanted in the right flank of Balb/c nude mice (each experimental group n=8). Arrow indicated the time of stopping drug treatment. The tumor volume was estimated as described in Methods of the Invention section. (D) After 2 weeks recovered from treatment, mice were sacrificed for tumor weight measurement. Data represent mean±s.e.m; **, P<0.01 by a two-tailed Student's t-test. (E) Ki 67 proliferation marker staining of tumor shown in left panel. Scale bar, 50 μm. (F) Model of doxorubicin sensitization by YMU1 in malignant cancer cells. Both R2/R1 and TMPK are recruited to the site of doxorubicin-induced double-strand breaks, where dATP, dGTP, dCTP, dTTP and dUTP are site-specific synthesized. Inhibition of TMPK decreases dTTP formation at DNA damage sites, causing futile DNA repair due to dUTP incorporation.
(§2) Next, various human cancer cell lines were treated with YMU1, D6 or D7 for 72 h to test the potential of TMPK inhibitor in doxorubicin sensitization. After exposure to different concentration of doxorubicin for 4 h, cells were refreshed for viability analysis after 2 days and the IC50 value for doxorubicin in each of the cell lines was determined (FIG. 16A and Table 2).
(§3) Cells plated into a 96-well plate (10^3 cells/well) were treated and cell viability was measured by MTS assay (Promega) (Cory et al., 1991). An annexin V-fluorescein isothiocyanate (FITC) apoptosis kit (Calbiochem) was used to detect apoptosis. The cell cycle analysis was performed by staining cells with propidium iodide (PI) for fluorescence-activated cell sorter (FACS) analysis with CellQuest software.

panel of cell lines = test: Doxorubicin sensitization, MTS viability assay, summary over the panel of cell lines; assay type: cell-based, human; settings: all these cell lines; 72 h pre-treatment
Description: as §1, §2
The ability of YMU1 to sensitize non-tumorigenic mammary cycling H184B5F5/M10, MCF10A, primary human mammary epithelial (HMEC) and primary renal epithelial (HREC) cells and IMR-90 embryonic lung fibroblasts to doxorubicin was much weaker.
as §3

| inhibition at 2 µM (TMPK [1]) [%] | Compound | further results |
| --- | --- | --- |
| 47 | Cc1cc(C)c2c(=O)n(CC(=O)O)sc2n1 [compound 9, 2-(4,6-Dimethyl-3-oxoisothiazolo[5,4-b]pyridin-2(3H)-yl)acetic acid] | – |
| 96 | COC(=O)Cn1sc2ccccc2c1=O [compound 6, Methyl 2-(3-oxobenzo[d]isothiazol-2(3H)-yl)acetate] | – |
| 98.3 | COC(=O)Cn1sc2nc(C)cc(C)c2c1=O [compound 7, Methyl 2-(4,6-dimethyl-3-oxoisothiazolo[5,4-b]pyridin-2(3H)-yl)acetate] | melting point: 89 to 91 °C |
| 99.5 | Cc1cc(C)c2c(=O)n(CC(=O)N3CCNCC3)sc2n1 [compound 20, 4,6-Dimethyl-2-(2-oxo-2-(piperazin-1-yl)ethyl)isothiazolo[5,4-b]pyridin-3(2H)-one] | – |
| 28 | Cc1cc(C)c2c(=O)[nH]sc2n1 [compound 4, 4,6-Dimethylisothiazolo[5,4-b]pyridin-3(2H)-one] | inhibition against hTMPK (TMPK [2]; listed as D3): weak inhibitory activity; also recorded: do not inhibit TMPK |
| 100 | Cc1cc(C)c2c(=O)n(CC(=O)N3CCOCC3)sc2n1 [compound 19, 4,6-Dimethyl-2-(2-morpholino-2-oxoethyl)isothiazolo[5,4-b]pyridin-3(2H)-one] | enhancement on doxorubicin sensitization (MDA-MB231): had no effect |
| 112 | Cc1cc(C)c2c(=O)n(CC(=O)N3CCN(C(=O)OC(C)(C)C)CC3)sc2n1 [compound 22, Tert-butyl 4-(2-(4,6-dimethyl-3-oxoisothiazolo[5,4-b]pyridin-2(3H)-yl)acetyl) piperazine-1-carboxylate] | – |
| 124 | CC(C)(C)OC(=O)N1CCN(C(=O)Cn2sc3ccccc3c2=O)CC1 [compound 12, Tert-butyl 4-(2-(3-oxobenzo[d]isothiazol-2(3H)-yl)acetyl)piperazine-1-carboxylate] | enhancement on doxorubicin sensitization (MDA-MB231): 30 fold |
| 7.8 | COC(=O)COc1nsc2nc(C)cc(C)c12 [compound 25, Methyl 2-(4,6-dimethylisothiazolo[5,4-b]pyridin-3-yloxy)acetate] | – |
| 16 | Cc1cc(C)c2c(OCC(=O)N3CCOCC3)nsc2n1 [compound 27, 2-(4,6-Dimethylisothiazolo[5,4-b]pyridin-3-yloxy)-1-morpholinoethanone] | melting point: 153 to 155 °C |
| 16.4 | Cc1cc(C)c2c(OCC(=O)O)nsc2n1 [compound 26, 2-(4,6-Dimethylisothiazolo[5,4-b]pyridin-3-yloxy)acetic acid] | – |
| 51.4 | CC(C)(C)OC(=O)N1CCN(C(=O)CN2C(=O)c3ccccc3C2=O)CC1 [compound 18, Tert-Butyl 4-[2-(1,3-dioxo-1,3-dihydro-isoindol-2-yl)-acetyl]-piperazine-1-carboxylate] | – |
| 76.5 | Cc1ccc2c(=O)[nH]sc2n1 [compound 3, 6-Methylisothiazolo[5,4-b]pyridin-3(2H)-one] | – |

Further lines, the compound ahead of its results:

| Compound | inhibition at 2 µM (TMPK [1]) [%] | further results |
| --- | --- | --- |
| CCOC(=O)N1CCN(C(=O)CCCn2sc3ccccc3c2=O)CC1 [compound 23, Ethyl 4-(4-(3-oxobenzo[d]isothiazol-2(3H)-yl)butanoyl)piperazine-1-carboxylate] | 0 | – |
| O=C(CN1C(=O)c2ccccc2S1(=O)=O)N1CCNCC1 [compound 16, 2-(2-Oxo-2-(piperazin-1-yl)ethyl)benzo[d]isothiazol-3(2H)-one 1,1-dioxide] | 11.8 | – |
| O=C(Cn1sc2ccccc2c1=O)N1CCN(C(=O)OCc2ccccc2)CC1 [compound 13, Benzyl 4-(2-(3-oxobenzo[d]isothiazol-2(3H)-yl)acetyl)piperazine-1-carboxylate] | 127 | – |
| O=C(Cn1sc2ccccc2c1=O)N1CCN(C(=O)Cn2sc3ccccc3c2=O)CC1 [compound 24, 2,2′-(2,2′-(piperazine-1,4-diyl)bis(2-oxoethane-2,1-diyl))dibenzo[d]isothiazol-3(2H)-one] | 118 | – |
| O=C(Cn1sc2ccccc2c1=O)N1CCNCC1 [compound 10, 2-(2-Oxo-2-(piperazin-1-yl)ethyl)benzo[d]isothiazol-3(2H)-one] | 96.8 | enhancement on doxorubicin sensitization (MDA-MB231): had no effect; inhibition against hTMPK (TMPK [2]): considerable inhibitory function |
| CC(C)(C)OC(=O)N1CCN(C(=O)CN2C(=O)c3ccccc3S2(=O)=O)CC1 [compound 17, Tert-butyl 4-(2-(3-oxobenzo[d]isothiazol-2(3H)-yl)acetyl)piperazine-1-carboxylate 1,1-dioxide] | 10.1 | – |
| CCOC(=O)N1CCN(C(=O)CI)CC1 [D6, ethyl 4-(2-iodoacetyl)piperazine-1-carboxylate] | – | inhibition against hTMPK (TMPK [2]): Neither D6 (as the piperazine fragment of YMU1) nor D7 (as the O-alkylation isomer of YMU1) showed any inhibition; also recorded: do not inhibit TMPK; doxorubicin sensitization effect (panel of cell lines): had no doxorubicin sensitization effect |
| O=C(O)Cn1sc2ccccc2c1=O [compound 8, 2-(3-oxobenzo[d]isothiazol-2(3H)-yl)acetic acid] | 29.1 | – |
| O=C(Cn1sc2ccccc2c1=O)N1CCN(C(=O)Oc2ccc([N+](=O)[O-])cc2)CC1 [compound 14, 4-Nitrophenyl 4-(2-(3-oxobenzo[d]isothiazol-2(3H)-yl)acetyl)piperazine-1-carboxylate] | 129 | – |
| C=CCN1CCN(C(=O)Cn2sc3ccccc3c2=O)CC1 [compound 15, 2-(2-(4-Allylpiperazin-1-yl)-2-oxoethyl)benzo[d]isothiazol-3(2H)-one] | 102 | – |
| CCOC(=O)N1CCN(C(=O)Cn2sc3ccccc3c2=O)CC1 [compound 11, Ethyl 4-(2-(3-oxobenzo[d]isothiazol-2(3H)-yl)acetyl)piperazine-1-carboxylate] | – | inhibition (TMPK [1]): 100% |
| CCOC(=O)N1CCN(C(=O)N2Cc3ccccc3C2=O)CC1 [compound 5, Ethyl 4-(1-oxoisoindoline-2-carbonyl)piperazine-1-carboxylate] | 92.9 | – |
